From patent US8114892B2, “Methods and compositions for the treatment of Parkinson's Disease” (The McLean Hospital Corporation, priority 2006, dated 2012)
Entries after “also recorded” stand apart in the source; their conditions may differ.

Experiments:
Type in all cases: cell-based
[1] = target: T1, Nurr1 (Homo sapiens, UniProt P43354); experiment: Primary screening: Nurr1 effector with 2.6-TH promoter firefly luciferase reporter, transient transfection in SK-N-BE(2)C cells; conditions: incubation for eighteen hours; for Hit identification in repeated primary screening (luciferase activity): pcDNA-Nurr1 construct
T1 construct: effector plasmid containing the Nurr1 gene; expressed in transfected cells; host or cells: SK-N-BE(2)C human neuroblastoma cells, transient transfection
T1 sequence (P43354 whole entry): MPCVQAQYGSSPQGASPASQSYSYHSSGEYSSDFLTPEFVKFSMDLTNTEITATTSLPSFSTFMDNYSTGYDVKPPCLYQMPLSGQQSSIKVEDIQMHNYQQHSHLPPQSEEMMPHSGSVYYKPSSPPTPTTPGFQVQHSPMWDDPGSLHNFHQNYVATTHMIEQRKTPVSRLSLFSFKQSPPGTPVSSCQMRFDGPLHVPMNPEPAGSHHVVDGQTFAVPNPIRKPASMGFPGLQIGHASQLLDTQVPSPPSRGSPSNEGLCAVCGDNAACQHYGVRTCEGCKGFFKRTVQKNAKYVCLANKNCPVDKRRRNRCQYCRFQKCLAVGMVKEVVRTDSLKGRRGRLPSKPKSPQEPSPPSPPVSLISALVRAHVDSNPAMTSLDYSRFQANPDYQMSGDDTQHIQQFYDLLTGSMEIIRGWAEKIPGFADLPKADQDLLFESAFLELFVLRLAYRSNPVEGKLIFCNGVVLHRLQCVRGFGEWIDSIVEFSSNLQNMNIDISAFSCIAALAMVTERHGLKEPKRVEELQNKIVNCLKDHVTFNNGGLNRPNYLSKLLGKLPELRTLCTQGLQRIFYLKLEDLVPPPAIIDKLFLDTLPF
Method: FIG. 5A is a chart showing preliminary screening data with a small chemical library. Transiently expressed Nurr1 activity in SK-N-BE(2)C cells was measured by luciferase activity with 2.6-TH promoter after incubation with each compound for eighteen hours. […] Each column has eight different chemical compounds. FIG. 5B is a chart showing further preliminary screening data with a small chemical library. Transiently expressed Nurr1 activity in SK-N-BE(2)C cells was measured by luciferase activity with 2.6-TH promoter after incubation with each compound for eighteen hours. […] Each column has eight different chemical compounds.
Transiently expressed Nurr1 activity in SK-N-BE(2)C cells was measured by luciferase activity after incubation of each compound with the pcDNA-Nurr1 construct for eighteen hours.
A cell-based system exploiting Nurr1's activation of TH was created in order to develop an assay for identification of Nurr1-activating compounds. […] In addition, a transient transfection was selected, rather than using stable cell-line transfection, to favor the maximum responsiveness of compounds to the reporter gene in order to detect low-affinity hit chemicals in the first screening. Another parameter considered was the selection of short-sized natural TH promoters with all essential NBRE (Nurr1-binding)-like motifs rather than one specific kind of NBRE-motif, based on the assumption that the natural promoter generates closer biological screening condition than artificially copied promoter and the false positive chemicals due to the interaction of other unrelated transcription factors can be easily ruled out by the effective secondary screening method.
To explore this new Nurr1 cell based assay system, several combinations of variable parameters, including effector gene promoter, internal control gene promoter, TH promoter size, promoter of internal control gene, transient transfection condition, serum concentration, and DMSO effect were tried. […]

[2] = target: T2, GAL4 DBD-Nurr1 LBD (Homo sapiens, UniProt P43354); experiment: Secondary screening: GAL4-DBD construct fused with Nurr1-LBD, luciferase reporter in SK-N-BE(2)C cells; conditions: incubation for eighteen hours
T2 construct: expressed in transfected cells; host or cells: SK-N-BE(2)C cells, transient transfection
T2 sequence (P43354 360-595 limits assumed): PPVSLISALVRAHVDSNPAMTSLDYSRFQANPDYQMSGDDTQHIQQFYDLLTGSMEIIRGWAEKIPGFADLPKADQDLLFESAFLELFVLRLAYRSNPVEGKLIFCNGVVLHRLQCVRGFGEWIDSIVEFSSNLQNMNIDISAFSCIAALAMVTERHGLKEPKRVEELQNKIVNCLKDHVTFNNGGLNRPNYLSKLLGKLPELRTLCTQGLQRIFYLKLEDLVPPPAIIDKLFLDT
T2 sequence (P04386 1-147 partner limits assumed): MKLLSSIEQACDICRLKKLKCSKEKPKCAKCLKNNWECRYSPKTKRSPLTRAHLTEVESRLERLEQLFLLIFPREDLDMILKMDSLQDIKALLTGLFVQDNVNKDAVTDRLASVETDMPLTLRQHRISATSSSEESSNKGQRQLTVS
Method: FIG. 7 includes a chart showing secondary screening data with primary hit chemicals. Transiently expressed Nurr1 activity in SK-N-BE(2)C cells was measured by luciferase activity after incubation of each compound with GAL4-DBD construct fused with Nurr1-LBD for eighteen hours. […] Also shown is a schematic representation of the GAL4-DBD-Nurr1-LBD fusion construct activating the firefly luciferase reporter gene.
As a secondary screening system, GAL4 DNA binding domain (DBD) constructs were used, which separately fused whole Nurr1, Nurr1-ligand binding domain (LBD), or Nurr1-DNA binding domain to the yeast GAL4 DBD. […] 6-MP, regulating Nurr1 through a region in the amino terminus, was used as a negative control in this experiment.

[3] = system: mouse ES cell-derived neurons (ES cell lines D3 and J1); experiment: Dopaminergic neuronal differentiation of ES cells in vitro (5-stage method), TH+/Tuj1+ immunostaining; conditions: 2 uM added at day five of the ES-derived neuronal stage for four days
Text: FIG. 10A is a pair of photos showing embryonic stem (ES) cell-derived neurons subjected to an indirect immunohistochemical assay (TH+/Tuj1+ staining). ES-derived neurons were immunolabeled with anti-β-tubulin III and anti-TH. Superposition of both proteins under a fluorescent microscope is shown in white. DMSO was used as a control.
For in vitro differentiation of ES cells, we used the 5-stage method, which is known in the art (see, e.g., Lee et al., Nat. Biotechnol. 18:675-679, 2000) and is useful for distinguishing each stage of developmental progression of ES cells. The mouse blastocyst-derived ES cell lines D3 and J1 were propagated and maintained according to methods well-known in the art (see, e.g., Deacon et al., Exp. Neurol., 149:28-41, 1998, and Chung et al., Stem Cells, 20:139-145, 2002). The mouse ES cells were generated as embryoid bodies (EBs) on nonadherent bacterial dishes for four days in growth medium consisting of DMEM supplemented with 2 mM L-glutamine, 0.001% β-mercaptoethanol, 1× non-essential amino acids (all from Invitrogen), and 10% FBS (Hyclone). The EBs were then plated onto adhesive tissue culture dish surfaces. After 24 hours in culture, selection of nestin-positive cells was performed in serum-free ITSFn medium. […]

Row | Luciferase activity compared to control with DMSO, preliminary screening ([1]; 2.6-TH promoter) | SMILES | Hit identification in repeated primary screening (luciferase activity) [1] | Hit identification in secondary screening (luciferase activity) ([2]; listed as Amodiaquine) | Hit identification in secondary screening (luciferase activity) ([2]; listed as amodiaquine) | Number of TH+ cells during in vitro ES cell differentiation, in comparison with the control DMSO [3] | Hit identification in secondary screening (luciferase activity) [2]
1 |  | CCN(CC)Cc1cc(Nc2ccnc3cc(Cl)ccc23)ccc1O [Amodiaquine (4E), amodiaquine] | hit candidates | identified as hit candidate compounds | hit candidates | increased the number of TH+ cells | 
2 | apparent increase in luciferase activity | CCN(CC)CCCC(C)Nc1ccnc2cc(Cl)ccc12 (stereo not shown) [Chloroquine diphosphate, chloroquine diphosphate] |  |  |  |  | 
3 |  | O=C(OCC(O)CO)c1ccccc1Nc1ccnc2cc(Cl)ccc12 (stereo not shown) [Glafenine (11D), glafenine] | hit candidates |  |  |  | identified as hit candidate compounds; also recorded: hit candidates
